Laboratory results taken from patent US8497261B2, “3-aminocaprolactam compounds for treating inflammatory disorders” (Cambridge Enterprise Limited, priority 2004, dated 2013).
Blank lines part the entries; values can stand above or below the compound they belong to.

Tests used:
Stability in human serum = assay type: in vitro ADME; details: 37° C.
Description: As an approach to identifying such stable anlogs, various derivatives of (S)-3-(undec-10-enoyl)-aminoglutarimide have been tested for their stability in serum.

[1] = tested on: chemokine-induced migration; test: Chemokine-induced migration in vitro (prior compounds); assay type: cell-based; details: compared with (S)-3-(undec-10-enoyl)-aminoglutarimide
[2] = cited from earlier work

time completely stable in human serum (Stability in human serum): at least 7 days
Compound: C=CCCCCCCCCC(=O)[C@@H]1CCCNC1=O [(S)-3-(undec-10-enoyl)-tetrahydropyridin-2-one]
potency compared with the parental molecule [1]: considerably reduced potency

melting point: 182 to 184 °C
Compound: CCCCC[C@H]1CC[C@H](C(=O)N[C@H]2CCCNC(=O)C2)CC1 [Example 4, (S)-3-(trans-4′-pentylcyclohexane-1-carbonyl)amino-caprolactam]

Compound: c(DCys-DG1n-DIle-DTrp-DLys-DG1n-DLys-DPro-DAsp-DLeu-DCys)-NH2 [NR583.14.3]
half-life period of clearance from blood plasma ([2]; after intravenous injection): less than 30 minutes | oral bioavailability ([2]; in vivo, po): not orally bioavailable
